From article PMC6547622 (ACS Omega, 2019)

Assays:
Format in all cases: biochemical
[1] = molecular target: T1, αPMM/PGM from P. aeruginosa (Pseudomonas aeruginosa, UniProt P26276); assay: IC50 determination of αPMM/PGM
T1 sequence (P26276 1-463): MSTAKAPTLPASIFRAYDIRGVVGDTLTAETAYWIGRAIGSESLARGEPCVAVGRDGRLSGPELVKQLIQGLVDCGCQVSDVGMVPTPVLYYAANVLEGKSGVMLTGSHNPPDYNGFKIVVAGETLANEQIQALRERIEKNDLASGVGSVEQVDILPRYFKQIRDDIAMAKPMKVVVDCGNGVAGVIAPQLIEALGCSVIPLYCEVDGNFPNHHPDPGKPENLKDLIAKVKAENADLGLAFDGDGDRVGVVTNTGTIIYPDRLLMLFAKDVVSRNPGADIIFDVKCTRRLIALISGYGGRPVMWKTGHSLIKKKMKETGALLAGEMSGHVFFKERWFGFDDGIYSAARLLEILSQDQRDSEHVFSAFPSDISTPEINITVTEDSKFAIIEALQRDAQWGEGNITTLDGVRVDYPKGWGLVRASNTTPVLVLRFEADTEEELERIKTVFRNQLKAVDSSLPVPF

[2] = molecular target: βPGM from L. lactis (Lactococcus lactis subsp. lactis, UniProt P71447); assay: IC50 determination of βPGM
[3] = molecular target: T2, αPMM/PGM (Pseudomonas aeruginosa, UniProt P26276); assay: Michaelis Menten kinetics of αPMM/PGM; settings: read-out: Km(αG1P), variable αG1P 0–200 µM
T2 sequence (P26276 1-463): T1 sequence (P26276 1-463)

Row | SMILES | IC50 [1] | Ki [1] | IC50 [2] | Ki [2] | Km [3]
1 | O=P(O)(O)OC[C@H]1O[C@@](O)(CF)[C@H](O)[C@@H](O)[C@@H]1O [compound 2, 1-Deoxy-1-monofluoro-α-D-gluco-heptulose 7-Phosphate] | 234 ± 29 µM | 117 ± 14 µM | 183 ± 14 µM | 92 ± 7 µM | 
2 | O=P(O)(O)O[C@H]1O[C@H](CO)[C@@H](O)[C@H](O)[C@H]1O [αG1P, glucose 1-phosphate] |  |  |  |  | 20 µM
3 | O=P(O)(O)OC[C@H]1O[C@@](O)(C(F)F)[C@H](O)[C@@H](O)[C@@H]1O [compound 3, 1-Deoxy-1,1-difluoro-α-D-gluco-heptulose 7-Phosphate] | 288 ± 37 µM | 144 ± 18 µM | 214 ± 11 µM | 107 ± 6 µM | 
4 | C[C@]1(O)O[C@H](COP(=O)(O)O)[C@@H](O)[C@H](O)[C@H]1O [compound 1, 1-Deoxy-α-D-gluco-heptulose 7-Phosphate] | 131 ± 1 µM | 65 ± 0.5 µM | 113 ± 3 µM | 57 ± 2 µM | 
